Consider 16 compounds from patent US20250304551A1 (SHANGHAI APEIRON THERAPEUTICS COMPANY LIMITED, priority 2022, published 2025).

Molecules are shown by their SMILES. Some results are limits rather than exact numbers.

Experiment [1] has as its target T1, Human KIF18A (amino acid sequence 1-417) (Homo sapiens, UniProt Q8NI77).
T1 construct: purchased Viva Biotech (Shanghai) Ltd
As to the kind of experiment: Enzyme activity detection experiment (ADP-Glo, KIF18A with tubulin and ATP). It is filed as biochemical. The following applies: tubulin 60 μg/mL, ATP 25 μM, KIF18A protein 2.5 nM, 120 minutes at ambient temperature, ADP-Glo chemiluminescence. The procedure: Materials: Human KIF18A (amino acid sequence 1-417) was obtained from Viva Biotech (Shanghai) Ltd., and the ADP-Glo™ protein kinase kit was acquired from Promega, USA. Tubulin was sourced from Cytoskeleton, USA, while a 384-well assay plate and the Envision multifunctional microplate reader were obtained from PerkinElmer, USA.
Enzyme activity detection: The compound powder in DMSO was firstly dissolved to prepare a 10 mM stock solution. Next, gradient dilutions were prepared in the microplate to achieve final concentrations of […]. Sequentially, 2.5 μL of tubulin (60 μg/mL), the compound, ATP (25 μM), and KIF18A protein (2.5 nM) were added to each well, and the reaction was incubated at ambient temperature for 120 minutes. After the reaction, 10 μL of ADP-Glo™ reagent was added to each well and incubated at ambient temperature for 30 minutes. Subsequently, 20 μL of detection reagent was added to each well and incubated for an additional 30 minutes in the dark. Finally, chemiluminescence detection was performed using the PerkinElmer Envision multifunctional microplate reader.
On the technique in general: ADP-Glo first removes unused ATP, then detects ADP through luciferase.

In a further experiment the test system is OVCAR3 cells. As to the kind of experiment: Cell proliferation activity test, OVCAR3 (CyQUANT Direct). Type of experiment: cell-based. The settings on record: Homo sapiens, OVCAR-3, 72 h, 3 days incubation, CyQUANT fluorescence detection, read-out: OVCAR-3 Cell Viability_IC50_nM. The procedure:
Materials and Cells: OVCAR3 cells were purchased from Nanjing Cobioer Biosciences Co., Ltd. RPMI-1640 medium, fetal bovine serum, and the CyQUANT Direct Cell Proliferation Assay kit were purchased from Thermo Fisher Scientific, USA; 96-well cell culture plates were sourced from Corning, USA.
Cell Culture: Culture OVCAR3 cells with RPMI-1640 medium containing […] and incubate them in a […] incubator at 37° C. Only cells in the logarithmic growth phase can be used for the test.
Inoculate OVCAR3 cells into a 96-well cell culture plate at 90 μL per well and incubate overnight in a […] incubator at 37° C. Dissolve the compound powder in DMSO to prepare a stock solution of 10 mM. Then perform gradient dilution for the compounds in the microplate to achieve a final concentration of 0-10 μM. Add 10 μL of cell culture medium containing compounds to each well to make the final DMSO content 0.20%. Incubate the cell plates in a […] incubator at 37° C. for 3 days. Add 100 μL of CyQUANT detection reagent to each well, react at 37° C. for 60 min, and perform fluorescence detection using the PerkinElmer Envision.

The subject of another experiment is HT29 cells. The experiment in a line: CyQuant cell proliferation activity test, HT29. It is filed as cell-based. The settings on record: Homo sapiens, HT-29, 72 h, HT29 2000 cells per well, 3 days incubation, initial concentration 3000 nM, IC50 by XLFIT, read-out: HT-29 Cell Viability_IC50_nM. The protocol:
Materials and Cells: HT29 cells were purchased from Nanjing Cobioer Biosciences Co., Ltd.; RPM-1640 medium, fetal bovine serum, Trypsin-EDTA (0.25%), DMSO, 96-well plates, and CyQuant reagents were purchased from ThermoFisher (USA).
Cell Culture: Culture HT29 cells with RPMI-1640 containing 10% fetal bovine serum under the condition of 37° C. and 5% CO2. Only cells in the logarithmic growth phase can be used for the test.
Cell Proliferation Activity Test: Use the CyQuant reagent to detect the proliferation inhibitory activity of compounds on HT29 cells. Adjust the cell density and inoculate 100 μL per well into the 96-well plate (HT29 at 2000 cells per well), then incubate overnight under the condition of 37° C. and […]. Add compounds of various target concentrations (initial concentration of 3000 nM, 3-fold dilution, 9 concentration gradients), and make the DMSO content 0.20%. Incubate the cell plates at 37° C. and 5% CO2 for 3 days. Incubate with CyQuant reagent for 1 h, read the plate by Envision, and calculate IC50 using XLFIT.

T1 sequence (Q8NI77 1-417): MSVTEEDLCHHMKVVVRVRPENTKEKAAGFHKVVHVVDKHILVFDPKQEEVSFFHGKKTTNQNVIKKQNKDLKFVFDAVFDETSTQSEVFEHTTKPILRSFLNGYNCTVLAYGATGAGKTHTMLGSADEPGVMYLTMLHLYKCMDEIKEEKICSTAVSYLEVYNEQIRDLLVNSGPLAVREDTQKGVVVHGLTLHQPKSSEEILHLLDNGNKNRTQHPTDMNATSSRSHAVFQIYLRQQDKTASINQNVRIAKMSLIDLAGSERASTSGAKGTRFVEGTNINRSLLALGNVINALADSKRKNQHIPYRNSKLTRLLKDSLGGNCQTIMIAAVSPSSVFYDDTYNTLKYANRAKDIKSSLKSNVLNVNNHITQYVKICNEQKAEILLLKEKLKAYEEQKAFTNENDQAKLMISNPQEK
T1 sequence (Q2XVP4 whole entry partner): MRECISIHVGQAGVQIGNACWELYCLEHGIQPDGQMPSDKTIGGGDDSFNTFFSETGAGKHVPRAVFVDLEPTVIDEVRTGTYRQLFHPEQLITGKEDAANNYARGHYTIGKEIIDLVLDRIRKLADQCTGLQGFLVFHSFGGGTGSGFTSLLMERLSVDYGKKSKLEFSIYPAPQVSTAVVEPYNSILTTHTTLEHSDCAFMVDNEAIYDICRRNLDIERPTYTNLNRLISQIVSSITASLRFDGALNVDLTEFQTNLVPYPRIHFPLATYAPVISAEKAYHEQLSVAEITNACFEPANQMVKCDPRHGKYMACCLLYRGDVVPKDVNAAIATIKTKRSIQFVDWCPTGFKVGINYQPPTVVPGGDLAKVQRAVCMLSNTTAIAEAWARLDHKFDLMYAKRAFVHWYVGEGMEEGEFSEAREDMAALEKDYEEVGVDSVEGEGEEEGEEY
T1 sequence (P02554 whole entry partner): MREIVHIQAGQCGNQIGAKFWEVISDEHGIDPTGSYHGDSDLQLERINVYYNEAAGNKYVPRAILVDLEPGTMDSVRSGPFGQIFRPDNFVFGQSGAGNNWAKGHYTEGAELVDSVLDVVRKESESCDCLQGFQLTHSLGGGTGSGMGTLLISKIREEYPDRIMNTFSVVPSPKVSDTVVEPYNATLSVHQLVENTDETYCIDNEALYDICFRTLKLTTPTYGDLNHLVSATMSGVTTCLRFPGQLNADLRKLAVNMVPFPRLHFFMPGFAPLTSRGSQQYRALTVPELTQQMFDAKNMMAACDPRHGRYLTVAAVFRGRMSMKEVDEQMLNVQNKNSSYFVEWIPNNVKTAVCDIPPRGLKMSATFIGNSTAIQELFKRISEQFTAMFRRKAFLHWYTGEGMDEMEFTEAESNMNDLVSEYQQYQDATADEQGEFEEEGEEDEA

Consider `Cc1cc(-c2nnc(-c3ccc(NS(=O)(=O)CCO)cc3N3CCC4(CC3)CC4)o2)nc(N2CCC(C)(O)CC2)n1` [Example 19, 2-hydroxy-N-(4-(5-(2-(4-hydroxy-4-methylpiperidin-1-yl)-6-methylpyrimidin-4-yl)-1,3,4-oxadiazol-2-yl)-3-(6-azaspiro[2.5]octan-6-yl)phenyl)ethane-1-sulfonamide], for which the IC50 in experiment [1] was 630 nM; in the experiment with OVCAR3 cells, 1400 nM; in the experiment with HT29 cells, > 3000 nM.

For `COc1cc(-c2nnc(-c3ccc(NS(=O)(=O)CCO)cc3N3CCC4(CC3)CC4)o2)nc(N2CCC(F)(F)CC2)n1` [Example 20, N-(4-(5-(2-(4,4-difluoropiperidin-1-yl)-6-methoxypyrimidin-4-yl)-1,3,4-oxadiazol-2-yl)-3-(6-azaspiro[2.5]octan-6-yl)phenyl)-2-hydroxyethane-1-sulfonamide], the IC50 in experiment [1] was 61 nM; with OVCAR3 cells it was 139 nM; with HT29 cells it was 55 nM.

As to `O=S(=O)(CCO)Nc1ccc(-c2nnc(-c3cc(O)nc(N4CCC(F)(F)CC4)n3)o2)c(N2CCC3(CC2)CC3)c1` [Example 21, N-(4-(5-(2-(4,4-difluoropiperidin-1-yl)-6-hydroxypyrimidin-4-yl)-1,3,4-oxadiazol-2-yl)-3-(6-azaspiro[2.5]octan-6-yl)phenyl)-2-hydroxyethane-1-sulfonamide], the values for the IC50 (in experiment [1]; in the experiment on OVCAR3 cells; in the experiment on HT29 cells) were 67 nM, 1620 nM and > 3000 nM, respectively.

For the compound `COc1cc(-c2nnc(-c3ccc(NS(=O)(=O)CCO)cc3N3CCC4(CC3)CC4)o2)cc(N2CCC(F)(F)CC2)n1` [Example 22, N-(4-(5-(2-(4,4-difluoropiperidin-1-yl)-6-methoxypyridin-4-yl)-1,3,4-oxadiazol-2-yl)-3-(6-azaspiro[2.5]octan-6-yl)phenyl)-2-hydroxyethane-1-sulfonamide], the IC50 was 46 nM in experiment [1], 34 nM in the experiment on OVCAR3 cells and 23 nM in the experiment on HT29 cells.

`Cc1cc(-c2nnc(-c3ccc(NS(=O)(=O)CCO)cc3N3CCC4(CC3)CC4)o2)c(F)c(N2CCC(F)(F)CC2)n1` [Example 23, N-(4-(5-(2-(4,4-difluoropiperidin-1-yl)-3-fluoro-6-methylpyridin-4-yl)-1,3,4-oxadiazol-2-yl)-3-(6-azaspiro[2.5]octan-6-yl)phenyl)-2-hydroxyethane-1-sulfonamide]: the results for the IC50 (in experiment [1]; with OVCAR3 cells; in the experiment with HT29 cells) were 153 nM, 115 nM and 118 nM, respectively.

For the compound `Cc1cc(-c2nnc(-c3ccc(NS(=O)(=O)CCO)cc3N3CCC4(CC3)CC4)o2)cc(N2CCC(F)(F)CC2)n1` [Example 24, N-(4-(5-(2-(4,4-difluoropiperidin-1-yl)-6-methylpyridin-4-yl)-1,3,4-oxadiazol-2-yl)-3-(6-azaspiro[2.5]octan-6-yl)phenyl)-2-hydroxyethane-1-sulfonamide], the IC50 in experiment [1] is 51 nM; in the experiment on OVCAR3 cells, 16 nM; in the experiment with HT29 cells, 20 nM.

Turning to `Cc1cc(-c2nnc(-c3ccc(NS(=O)(=O)CCO)cc3N3CCC4(CC3)CC4)o2)nc(N2CCC(F)(F)CC2)c1` [Example 25, N-(4-(5-(6-(4,4-difluoropiperidin-1-yl)-4-methylpyridin-2-yl)-1,3,4-oxadiazol-2-yl)-3-(6-azaspiro[2.5]octan-6-yl)phenyl)-2-hydroxyethane-1-sulfonamide], the IC50 in experiment [1] was found to be 46 nM; with OVCAR3 cells, 91 nM; in the experiment with HT29 cells, 122 nM.

In the case of `Cc1cc(N2CCC(F)(F)CC2)nc(-c2nnc(-c3ccc(NS(=O)(=O)CCO)cc3N3CCC4(CC3)CC4)o2)c1Cl` [Example 26, N-(4-(5-(3-chloro-6-(4,4-difluoropiperidin-1-yl)-4-methylpyridin-2-yl)-1,3,4-oxadiazol-2-yl)-3-(6-azaspiro[2.5]octan-6-yl)phenyl)-2-hydroxyethane-1-sulfonamide], the IC50 was 287 nM in experiment [1], 767 nM in the experiment with OVCAR3 cells and 1270 nM with HT29 cells.

As for `Cc1cc(N2CCC(F)(F)CC2)nc(-c2nnc(-c3ccc(NS(=O)(=O)CCO)cc3N3CCC4(CC3)CC4)o2)n1` [Example 27, N-(4-(5-(4-(4,4-difluoropiperidin-1-yl)-6-methylpyrimidin-2-yl)-1,3,4-oxadiazol-2-yl)-3-(6-azaspiro[2.5]octan-6-yl)phenyl)-2-hydroxyethanesulfonamide], the IC50 stood at 124 nM in experiment [1], 875 nM in the experiment with OVCAR3 cells and 24600 nM in the experiment with HT29 cells.

For `Cc1cc(-c2nnc(-c3ccc(N4CCCS4(=O)=O)cc3N3CCC4(CC3)CC4)o2)nc(N2CCC(F)(F)CC2)n1` [Example 28, 2-(4-(5-(2-(4,4-difluoropiperidin-1-yl)-6-methylpyrimidin-4-yl)-1,3,4-oxadiazol-2-yl)-3-(6-azaspiro[2.5]octan-6-yl)phenyl)isothiazolidine 1,1-dioxide], the values for the IC50 (in experiment [1]; in the experiment on OVCAR3 cells; in the experiment on HT29 cells) were 293 nM, 118 nM and 192 nM, respectively.

Turning to `O=S(=O)(CCO)Nc1ccc(-c2nnc(-c3cc4cccnc4c(N4CCC(F)(F)CC4)n3)o2)c(N2CCC3(CC2)CC3)c1` [Example 29, N-(4-(5-(8-(4,4-difluoropiperidin-1-yl)-1,7-naphthyridin-6-yl)-1,3,4-oxadiazol-2-yl)-3-(6-azaspiro[2.5]octan-6-yl)phenyl)-2-hydroxyethanesulfonamide], the IC50 in experiment [1] was determined as 48 nM; in the experiment on OVCAR3 cells, 37 nM; with HT29 cells, 45 nM.

For the compound `O=S(=O)(CCO)Nc1ccc(-c2nnc(-c3cc4cccnc4c(N4CCC(F)(F)CC4)c3F)o2)c(N2CCC3(CC2)CC3)c1` [Example 30, N-(4-(5-(8-(4,4-difluoropiperidin-1-yl)-7-fluoroquinolin-6-yl)-1,3,4-oxadiazol-2-yl)-3-(6-azaspiro[2.5]octan-6-yl)phenyl)-2-hydroxyethane-1-sulfonamide], the IC50 is 255 nM in experiment [1], 55 nM in the experiment with OVCAR3 cells and 61 nM in the experiment with HT29 cells.

In the case of `Cn1cc(-c2ccc(-c3nnc(-c4ccc(NS(=O)(=O)CCO)cc4N4CCC5(CC4)CC5)o3)nc2N2CCC(F)(F)CC2)cn1` [Example 31, N-(4-(5-(6-(4,4-difluoropiperidin-1-yl)-5-(1-methyl-1H-pyrazol-4-yl)pyridin-2-yl)-1,3,4-oxadiazol-2-yl)-3-(6-azaspiro[2.5]octan-6-yl)phenyl)-2-hydroxyethane-1-sulfonamide], the IC50 stood at 161 nM in experiment [1], 16 nM in the experiment on OVCAR3 cells and 11 nM with HT29 cells.

As for `O=S(=O)(CCO)Nc1ccc(-c2nnc(-c3cc4cccn4c(N4CCC(F)(F)CC4)n3)o2)c(N2CCC3(CC2)CC3)c1` [Example 32], the IC50 in experiment [1] worked out at 113 nM; with OVCAR3 cells, 187 nM; with HT29 cells, 251 nM.

On to `O=S(=O)(CCO)Nc1ccc(-c2nnc(-c3cc4ccoc4c(N4CCC(F)(F)CC4)n3)o2)c(N2CCC3(CC2)CC3)c1` [Example 33], for which the IC50 in experiment [1] amounted to 61 nM; with OVCAR3 cells, 34 nM; in the experiment on HT29 cells, 65 nM.

For the compound `Cc1cc(-c2cn(-c3ccc(NS(=O)(=O)CCO)cc3N3CCC4(CC3)CC4)nn2)nc(N2CCC(F)(F)CC2)n1` [Example 34, N-(4-(4-(2-(4,4-difluoropiperidin-1-yl)-6-methylpyrimidin-4-yl)-1H-1,2,3-triazol-1-yl)-3-(6-azaspiro[2.5]octan-6-yl)phenyl)-2-hydroxyethanesulfonamide], the IC50 in experiment [1] worked out at 56 nM; with OVCAR3 cells it was 12 nM; in the experiment on HT29 cells, 15 nM.
